In publication PMC12217109, “Development of novel benzamide class I selective lysine deacetylase inhibitors as potent anticancer agents” (Journal of Enzyme Inhibition and Medicinal Chemistry, 2025):
Entries after “also recorded” stand apart in the source; their conditions may differ.

Assays:
acetylated tubulin = assay: Flow cytometric analysis of tubulin acetylation in A2780 cells; type: cell-based, human; details: A2780, 24 h, 10 µM
Experimental: The method was adapted from Ronzoni et al.[67] as previously described. A2780 cells were exposed to test compounds (0–10 µM) for 24 h, fixed with ice-cold ethanol (70% v/v) and permeabilised in the presence of 0.1% Triton-X. Non-specific protein binding was blocked using normal goat serum prior to incubation with or without primary antibodies raised against either anti-hyperacetylated Histone H4 (Penta) antibody (Upstate Biotechnology, USA) or acetylated tubulin (Sigma-Aldrich, UK), followed by incubation with FITC-conjugated secondary antibody (Dako). Cells were incubated in propidium iodide (PI) staining buffer (PBS with 50 µg/ml PI and 10 µg/ml RNase A) and subsequently analysed by flow cytometry (BD FACSCalibur; Becton Dickinson, UK). At least 15 000 events per sample were acquired and expression determined based on the detection of FITC fluorescence through the FL1 channel (530/30 nm bandpass optical filter), with cell doublets discriminated by forward/side scatter and background fluorescence omitted via comparison to unlabelled controls. Expression analysis was performed using CellQuest™ software (Becton Dickinson, UK).

leukemic cell lines = assay: NCI-60 cytotoxicity screen, leukaemic cell lines; type: cell-based; details: Homo sapiens; NCI-60, range over cell lines; read-out: cytotoxicity IC50 against leukemic cell lines
Text: Compounds 3–7 were submitted to the US National Cancer Institute (NIH, Bethesda, Maryland) for screening against the NCI-60 panel of human cancer cell lines, as per standard protocol.

HDAC2 = HDAC2 (Homo sapiens, UniProt Q92769); assay: Inhibition of individual recombinant KDACs
[1] = test system: hyperacetylated Histone H4; assay: Western blot of histone H4 hyperacetylation in A2780 cells; type: cell-based, human; details: A2780, 10 µM, 2, 4, 16 hrs
Experimental: Cells were then washed with ice-cold phosphate buffered saline (PBS) and lysed and sonicated in RIPA buffer [150 mM NaCl, 50 mM TrisHCl pH 7.4, 5 mM EDTA, 1% NP40, 0.1% SDS, 1 mM phenylmethylsulphonyl fluoride (PMSF) and proteinase inhibitor cocktail (1x)]. Cellular debris was removed by centrifugation (12,000 × g for 20 min, 4 °C) and protein concentration of the supernatants determined by Bradford Assay. Proteins (30 μg protein per lane) were resolved by SDS-PAGE, then transferred to the PVDF membrane (Hybond-P; Amersham, UK). For band size determination, Amersham Full-Range Rainbow™ Molecular Weight Markers (#RPN800) were loaded adjacent to the proteins within the gel. Non-specific protein binding on the PVDF membrane was blocked using 5% non-fat milk powder and the membranes probed separately with either anti-hyperacetylated Histone H4 (Penta) antibody (Upstate Biotechnology, USA), acetylated tubulin or β-actin antibodies (Sigma-Aldrich, UK). This was followed by incubation with horseradish peroxidase (HRP)-conjugated secondary antibodies (Dako, USA), with immunoreactive bands detected by enhanced chemiluminescence (ECL Plus detection kit; Amersham, UK).

HDAC10 = HDAC10 (Homo sapiens, UniProt Q969S8); assay: Inhibition of individual recombinant KDACs
[2] = Maximum tolerated dose evaluation in nude mice; type: in vivo
Text: (§1) Female CD-1 (Crl:CD1-Foxn1^nu) immunodeficient nude mice aged 6–12 weeks were used (Charles River, Margate UK). Mice were kept in stainless steel cages housed in isolation cabinets in an air-conditioned room with regular alternating cycles of light and darkness, receiving Teklad 2018 diet (Envigo, Blackthorn, UK) and water ad libitum. Before experimentation, all mice were allowed to acclimatise for one week to their environment. Environmental enrichment was provided in the form of Perspex “mouse houses”, chewing blocks and exercise wheels.
For evaluation of the maximum tolerated dose (MTD), two mice were treated at each of the three dose levels evaluated ([…]). […] Mice were observed daily for signs of deleterious effects and bodyweight measured frequently. […] If no deleterious effects were seen after at least 14 days of study, then the animals were euthanised by isoflurane anaesthesia followed by cervical dislocation, and the dose considered non-toxic.

HDAC5 = HDAC5 (Homo sapiens, UniProt Q9UQL6); assay: Inhibition of individual recombinant KDACs
HDAC6 = HDAC6 (Homo sapiens, UniProt Q9UBN7); assay: Inhibition of individual recombinant KDACs
HDAC4 = HDAC4 (Homo sapiens, UniProt P56524); assay: Inhibition of individual recombinant KDACs
[3] = test system: A2780 human ovarian tumour xenograft; assay: A2780 human ovarian tumour xenograft efficacy study; type: in vivo, mice; details: 100 mg/kg i.p. days 0–4 and 7–11
Text: as §1
To assess in vivo compound efficacy, mice were implanted subcutaneously in the abdominal flanks with 2–3 mm^3 -fragments of A2780 human ovarian tumour xenograft tumours, whilst under brief general inhalation anaesthesia (2% isoflurane). Treatments were initiated when tumours reached approximately 32 mm^3 and mice randomly assigned to cohorts (Twelve mice; n = 6 per group). […] Tumour volume, via calliper measurements, and body weight were assessed daily from initiation of treatment. The cut-off points for in-study termination being a > 15% body weight loss over a 72-h period and the tumour not exceeding 15 mm in the longest diameter. All mice were euthanised by isoflurane anaesthesia followed by cervical dislocation […]

Chain of HDAC5 (Q9UQL6 whole entry): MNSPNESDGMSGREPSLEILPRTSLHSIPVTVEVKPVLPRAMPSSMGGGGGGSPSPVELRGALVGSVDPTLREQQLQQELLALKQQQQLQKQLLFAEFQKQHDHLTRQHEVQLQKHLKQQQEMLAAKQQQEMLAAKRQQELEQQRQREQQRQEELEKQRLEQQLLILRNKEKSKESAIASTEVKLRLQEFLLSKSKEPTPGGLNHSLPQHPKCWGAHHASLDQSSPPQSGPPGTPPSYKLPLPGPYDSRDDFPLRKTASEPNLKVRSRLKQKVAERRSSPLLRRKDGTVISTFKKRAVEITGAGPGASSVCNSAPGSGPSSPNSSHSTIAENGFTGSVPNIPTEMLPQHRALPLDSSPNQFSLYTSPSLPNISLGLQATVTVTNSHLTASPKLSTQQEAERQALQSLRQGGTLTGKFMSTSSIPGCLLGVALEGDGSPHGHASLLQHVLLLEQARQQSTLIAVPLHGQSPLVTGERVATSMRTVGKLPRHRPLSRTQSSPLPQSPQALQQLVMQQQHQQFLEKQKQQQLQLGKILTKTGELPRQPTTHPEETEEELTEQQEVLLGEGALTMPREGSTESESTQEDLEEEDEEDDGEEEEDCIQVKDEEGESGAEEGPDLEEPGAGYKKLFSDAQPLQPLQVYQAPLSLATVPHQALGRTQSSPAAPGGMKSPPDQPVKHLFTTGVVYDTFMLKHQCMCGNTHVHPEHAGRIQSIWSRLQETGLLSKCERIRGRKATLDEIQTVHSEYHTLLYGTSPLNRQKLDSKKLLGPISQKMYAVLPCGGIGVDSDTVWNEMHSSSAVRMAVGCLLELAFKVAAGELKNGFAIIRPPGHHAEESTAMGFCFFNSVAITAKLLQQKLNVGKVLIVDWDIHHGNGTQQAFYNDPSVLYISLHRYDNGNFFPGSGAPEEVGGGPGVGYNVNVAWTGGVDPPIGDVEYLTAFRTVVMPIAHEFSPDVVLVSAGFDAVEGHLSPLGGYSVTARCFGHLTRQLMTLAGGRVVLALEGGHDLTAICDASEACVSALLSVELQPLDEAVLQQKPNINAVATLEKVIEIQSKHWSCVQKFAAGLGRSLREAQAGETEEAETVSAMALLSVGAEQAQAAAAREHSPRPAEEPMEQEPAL
Chain of HDAC2 (Q92769 whole entry): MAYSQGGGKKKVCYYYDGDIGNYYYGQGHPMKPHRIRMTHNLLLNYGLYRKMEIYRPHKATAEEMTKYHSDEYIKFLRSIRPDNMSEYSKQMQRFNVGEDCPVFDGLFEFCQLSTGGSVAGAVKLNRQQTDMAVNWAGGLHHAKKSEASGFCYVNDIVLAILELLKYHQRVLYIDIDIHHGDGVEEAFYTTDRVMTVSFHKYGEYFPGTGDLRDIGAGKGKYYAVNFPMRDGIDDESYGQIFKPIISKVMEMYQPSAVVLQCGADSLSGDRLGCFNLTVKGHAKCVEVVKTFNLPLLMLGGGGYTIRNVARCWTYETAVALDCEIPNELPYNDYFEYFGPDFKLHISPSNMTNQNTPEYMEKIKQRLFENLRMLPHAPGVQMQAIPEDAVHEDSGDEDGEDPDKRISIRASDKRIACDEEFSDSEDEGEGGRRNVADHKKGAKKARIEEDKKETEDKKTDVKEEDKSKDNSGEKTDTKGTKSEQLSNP
Chain of HDAC10 (Q969S8 whole entry): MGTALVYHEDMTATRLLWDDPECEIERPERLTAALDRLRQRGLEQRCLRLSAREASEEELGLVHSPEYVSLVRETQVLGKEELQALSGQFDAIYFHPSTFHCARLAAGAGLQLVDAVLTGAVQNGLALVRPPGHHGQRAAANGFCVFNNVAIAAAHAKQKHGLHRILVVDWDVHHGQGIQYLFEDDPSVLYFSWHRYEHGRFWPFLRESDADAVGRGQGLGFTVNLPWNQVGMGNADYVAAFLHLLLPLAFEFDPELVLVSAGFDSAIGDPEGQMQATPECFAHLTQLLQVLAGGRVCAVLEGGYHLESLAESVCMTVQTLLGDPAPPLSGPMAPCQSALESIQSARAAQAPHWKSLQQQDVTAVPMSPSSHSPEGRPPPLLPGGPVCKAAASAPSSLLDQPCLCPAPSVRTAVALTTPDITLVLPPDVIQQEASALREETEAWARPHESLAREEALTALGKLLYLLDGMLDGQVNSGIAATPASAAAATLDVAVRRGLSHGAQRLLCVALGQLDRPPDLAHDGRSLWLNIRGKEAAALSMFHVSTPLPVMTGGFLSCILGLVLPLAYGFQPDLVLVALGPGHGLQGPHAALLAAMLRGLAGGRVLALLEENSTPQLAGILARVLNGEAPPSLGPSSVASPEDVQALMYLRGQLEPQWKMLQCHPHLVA
Chain of HDAC4 (P56524 whole entry): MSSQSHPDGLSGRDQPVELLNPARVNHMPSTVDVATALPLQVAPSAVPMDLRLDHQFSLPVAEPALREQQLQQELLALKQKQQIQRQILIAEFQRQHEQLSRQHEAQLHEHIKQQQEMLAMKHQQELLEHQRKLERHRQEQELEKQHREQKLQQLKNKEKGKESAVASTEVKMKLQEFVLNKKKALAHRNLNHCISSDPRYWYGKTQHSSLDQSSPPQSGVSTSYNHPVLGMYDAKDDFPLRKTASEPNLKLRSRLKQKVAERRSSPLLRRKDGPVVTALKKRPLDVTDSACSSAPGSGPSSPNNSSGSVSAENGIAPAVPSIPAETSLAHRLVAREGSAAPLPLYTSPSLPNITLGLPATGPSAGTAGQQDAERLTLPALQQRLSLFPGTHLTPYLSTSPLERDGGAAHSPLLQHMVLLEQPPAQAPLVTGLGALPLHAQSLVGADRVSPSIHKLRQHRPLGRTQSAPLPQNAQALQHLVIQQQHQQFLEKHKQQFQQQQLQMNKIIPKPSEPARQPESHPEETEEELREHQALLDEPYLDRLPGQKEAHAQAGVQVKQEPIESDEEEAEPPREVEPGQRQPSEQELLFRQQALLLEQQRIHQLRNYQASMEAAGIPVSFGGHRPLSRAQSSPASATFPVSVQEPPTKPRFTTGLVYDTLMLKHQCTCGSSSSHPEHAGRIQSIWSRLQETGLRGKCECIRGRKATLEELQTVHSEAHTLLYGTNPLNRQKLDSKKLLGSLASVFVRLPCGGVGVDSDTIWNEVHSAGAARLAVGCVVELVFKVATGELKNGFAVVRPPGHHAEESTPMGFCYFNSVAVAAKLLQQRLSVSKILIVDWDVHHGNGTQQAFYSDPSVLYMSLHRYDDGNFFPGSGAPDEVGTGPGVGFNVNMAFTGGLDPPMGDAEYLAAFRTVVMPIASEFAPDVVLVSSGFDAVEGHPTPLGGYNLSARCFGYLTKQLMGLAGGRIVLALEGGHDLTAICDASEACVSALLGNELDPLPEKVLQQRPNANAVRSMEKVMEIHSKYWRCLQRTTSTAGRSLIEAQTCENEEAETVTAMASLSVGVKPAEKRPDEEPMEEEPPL
Chain of HDAC6 (Q9UBN7 whole entry): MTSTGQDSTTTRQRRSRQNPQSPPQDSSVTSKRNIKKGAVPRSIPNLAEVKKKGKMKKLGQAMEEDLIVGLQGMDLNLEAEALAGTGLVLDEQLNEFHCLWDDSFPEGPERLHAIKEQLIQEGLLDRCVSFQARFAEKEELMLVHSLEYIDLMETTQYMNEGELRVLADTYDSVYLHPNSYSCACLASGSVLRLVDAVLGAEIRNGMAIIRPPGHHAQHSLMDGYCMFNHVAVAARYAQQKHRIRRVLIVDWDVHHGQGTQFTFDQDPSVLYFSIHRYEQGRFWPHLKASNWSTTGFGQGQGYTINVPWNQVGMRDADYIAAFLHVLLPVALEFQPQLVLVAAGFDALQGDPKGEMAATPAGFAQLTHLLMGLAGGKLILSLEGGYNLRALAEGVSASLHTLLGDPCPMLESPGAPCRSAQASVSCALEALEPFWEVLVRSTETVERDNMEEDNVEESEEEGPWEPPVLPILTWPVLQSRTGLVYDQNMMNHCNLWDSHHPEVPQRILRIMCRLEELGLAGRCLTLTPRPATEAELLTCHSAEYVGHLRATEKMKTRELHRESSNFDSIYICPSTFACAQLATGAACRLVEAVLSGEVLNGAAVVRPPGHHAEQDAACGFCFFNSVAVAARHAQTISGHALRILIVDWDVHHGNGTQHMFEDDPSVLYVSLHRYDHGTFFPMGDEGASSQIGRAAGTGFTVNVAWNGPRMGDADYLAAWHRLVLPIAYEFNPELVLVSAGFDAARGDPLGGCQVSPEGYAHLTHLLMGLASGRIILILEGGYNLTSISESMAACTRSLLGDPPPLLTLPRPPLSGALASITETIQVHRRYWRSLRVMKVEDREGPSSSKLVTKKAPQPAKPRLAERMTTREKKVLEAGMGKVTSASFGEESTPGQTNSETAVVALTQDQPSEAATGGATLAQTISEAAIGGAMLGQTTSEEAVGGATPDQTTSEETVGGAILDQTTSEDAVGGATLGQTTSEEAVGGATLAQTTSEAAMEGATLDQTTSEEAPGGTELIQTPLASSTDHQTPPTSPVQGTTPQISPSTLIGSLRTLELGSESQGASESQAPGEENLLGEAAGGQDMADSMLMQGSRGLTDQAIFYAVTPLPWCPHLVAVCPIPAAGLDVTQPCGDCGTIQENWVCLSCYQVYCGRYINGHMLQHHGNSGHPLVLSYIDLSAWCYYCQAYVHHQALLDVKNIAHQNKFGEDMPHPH

SMILES	tubulin acetylation (flow cytometry) (acetylated tubulin)	IC50 (leukemic cell lines) [µM]	IC50 (HDAC2) [µM]	histone H4 hyperacetylation (western blotting) [1]	IC50 (HDAC10) [µM]	systemic toxicity ([2]; 100 mg/kg i.p., 5 consecutive days)	MTD ([2]; female, CD-1 nude (Crl:CD1-Foxn1^nu), mouse, in vivo, ip, single dose on 5 consecutive days) [mg/kg]	IC50 (HDAC5) [µM]	IC50 (HDAC6) [µM]	IC50 (HDAC4) [µM]	weight loss / toxicity during treatment [3]
Nc1ccccc1NC(=O)c1ccc(CNC(=O)OCc2cccnc2)cc1 [Compound 1, Entinostat, reference compound]	No change in Tubulin acetylation status; also recorded: neither 1 nor 7 induced a measurable change in tubulin acetylation	–	–	–	–	–	–	–	–	–	–
C=C(CN1CCN(c2cccc(C(F)(F)F)n2)CC1)c1ccc(C(=O)Nc2ccccc2N)cc1 [Compound 7, N-(2-aminophenyl)-4–(3-(4–(6-(trifluoromethyl)pyridin-2-yl)piperazin-1-yl)prop-1-en-2-yl)benzamide]	No change in Tubulin acetylation status; also recorded: neither 1 nor 7 induced a measurable change in tubulin acetylation	0.28 to 0.86	3.97	Time dependent increase in Histone H4 acetylation; also recorded: time-dependent increase in histone H4 hyperacetylation	> 10	No systemic toxicity	100	> 10	> 10	> 10	No significant weight loss or overt toxicity; also recorded: did not induce significant weight loss or detrimental toxicity
